Measured values reported in ChEMBL document CHEMBL1201862, “PubChem BioAssay data set” (2004).
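How tested: cells in 96-well plates exposed to compound for 48 hours at five concentrations. GI50 is the concentration that inhibits growth by half.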 Active and inactive are the calls of the source. Rule as the data show it: active = GI50 up to about 1.1 µM and inactive = higher.

Legend:
Assay in all cases: inhibition of tumour cell growth, NCI panel, 48 h
U-251 = tested on: U-251
NCI-H23 = tested on: NCI-H23
SR = tested on: SR
HOP-62 = tested on: HOP-62
SN12C = tested on: SN12C
EKVX = tested on: EKVX
SK-OV-3 = tested on: SK-OV-3
OVCAR-3 = tested on: OVCAR-3
RXF 393 = tested on: RXF 393
SK-MEL-5 = tested on: SK-MEL-5
DU-145 = tested on: DU-145
KM12 = tested on: KM12
OVCAR-4 = tested on: OVCAR-4
UACC-62 = tested on: UACC-62
ACHN = tested on: ACHN
SNB-19 = tested on: SNB-19
SF-539 = tested on: SF-539
T47D = tested on: T47D
Malme-3M = tested on: Malme-3M

Measured: GI50

O=C(/C=C\c1ccc(-c2ccccc2)cc1)c1cccs1
inactive: U-251 5.09 µM | NCI-H23 22 µM | SR 2.7 µM | HOP-62 25.3 µM | SN12C 7.45 µM | EKVX 53 µM | SK-OV-3 64.9 µM | OVCAR-3 9.29 µM | RXF 393 10.9 µM | SK-MEL-5 > 70 µM | DU-145 5.56 µM | KM12 4.42 µM | OVCAR-4 > 54.2 µM | UACC-62 16.4 µM | ACHN 32.3 µM | SNB-19 > 59.2 µM | SF-539 7.18 µM

O=c1c(C(c2ccc3c(c2)Cc2ccccc2-3)c2c(O)oc3ccccc3c2=O)c(O)oc2ccccc12
inactive: U-251 23.9 µM | NCI-H23 29.4 µM | HOP-62 32.5 µM | SN12C 20.4 µM | EKVX 48.9 µM | T47D 41.5 µM | SK-OV-3 31.3 µM | OVCAR-3 31 µM | RXF 393 18.2 µM | SK-MEL-5 24.5 µM | DU-145 33.6 µM | Malme-3M 26.2 µM | KM12 22.3 µM | OVCAR-4 31.8 µM | UACC-62 22.3 µM | ACHN 23.9 µM | SNB-19 47.1 µM | SF-539 21.4 µM

Cc1ccc2c(/C=C/c3ccc(N(C)C)cc3)ccnc2c1C
inactive: U-251 38.7 µM | NCI-H23 55.3 µM | HOP-62 30.8 µM | SN12C 20.6 µM | EKVX 40.4 µM | T47D 21.1 µM | SK-OV-3 31.1 µM | OVCAR-3 32.4 µM | RXF 393 18 µM | SK-MEL-5 18.2 µM | DU-145 48 µM | Malme-3M 12.6 µM | KM12 6.78 µM | UACC-62 13.4 µM | ACHN 25.8 µM | SNB-19 > 100 µM | SF-539 32.2 µM

COc1ccc(/C=N/n2c(Cc3ccccc3)n[nH]c2=O)cc1
inactive: U-251 37 µM | NCI-H23 94.8 µM | HOP-62 69.3 µM | SN12C > 100 µM | EKVX > 100 µM | T47D > 100 µM | SK-OV-3 > 100 µM | OVCAR-3 > 100 µM | DU-145 > 100 µM | Malme-3M > 100 µM | KM12 > 100 µM | OVCAR-4 > 100 µM | UACC-62 > 100 µM | ACHN > 100 µM | SNB-19 70.6 µM | SF-539 > 100 µM

COC(=O)[C@H](C)N(C)C(=O)[C@H](C)N1[C@@H](c2ccccc2)COC1(C)C
inactive: U-251 > 100 µM | NCI-H23 > 100 µM | SR > 100 µM | HOP-62 > 100 µM | EKVX > 100 µM | T47D > 100 µM | SK-OV-3 > 100 µM | OVCAR-3 > 100 µM | RXF 393 > 100 µM | SK-MEL-5 > 100 µM | Malme-3M > 100 µM | KM12 > 100 µM | OVCAR-4 > 100 µM | UACC-62 > 100 µM | ACHN > 100 µM | SNB-19 > 100 µM | SF-539 > 100 µM

C(=C\c1cc[n+](CCc2ccccc2)cc1)/c1ccccc1
inactive: U-251 4.9 µM | NCI-H23 12.5 µM | HOP-62 12.6 µM | SN12C 4.02 µM | EKVX 56.9 µM | T47D 5.58 µM | SK-OV-3 18.6 µM | OVCAR-3 5.26 µM | RXF 393 88.7 µM | SK-MEL-5 1.28 µM | DU-145 27 µM | Malme-3M 11.2 µM | KM12 3.98 µM | OVCAR-4 9.04 µM | UACC-62 10.7 µM | ACHN 26.9 µM | SNB-19 12.7 µM | SF-539 20.4 µM

N#CCCN(CCN(C(=O)Nc1ccccc1)c1ccccc1)C(=O)Nc1ccccc1
inactive: U-251 65.6 µM | NCI-H23 > 60.1 µM | SR 42 µM | HOP-62 > 100 µM | EKVX 69.5 µM | T47D > 35.1 µM | SK-OV-3 > 100 µM | OVCAR-3 > 100 µM | RXF 393 > 45.3 µM | SK-MEL-5 60.7 µM | Malme-3M > 100 µM | KM12 48.3 µM | OVCAR-4 > 100 µM | UACC-62 65 µM | ACHN 52.1 µM | SNB-19 > 57.3 µM | SF-539 > 65 µM

O=C1CCC(=O)N1n1c(Cc2ccc(Cl)cc2)n[nH]c1=O
inactive: U-251 > 100 µM | NCI-H23 > 100 µM | SN12C > 100 µM | EKVX > 100 µM | T47D > 100 µM | SK-OV-3 > 100 µM | OVCAR-3 > 100 µM | SK-MEL-5 > 100 µM | DU-145 > 100 µM | Malme-3M > 100 µM | KM12 > 100 µM | OVCAR-4 > 100 µM | UACC-62 > 100 µM | ACHN > 100 µM | SNB-19 > 100 µM | SF-539 > 100 µM
